Measured values published in the NIST ThermoML archive (doi:10.1016/j.jct.2005.07.009).
Numbers after ± are expanded uncertainties.

Columns and labels:
[1] = excess molar enthalpy (molar enthalpy of mixing); xn = mol fraction of the nth substance listed; conditions: 298.15 K, 101 kPa, Liquid
[2] = xn = mol fraction of the nth substance listed; conditions: 298.15 K, 101 kPa, Liquid, Vibrating tube method

BrCCBr [1,2-dibromoethane] + CCCC(=O)OCC
Conditions | excess molar enthalpy [kcal/mol] | mass density [kg/m3]
[1], x2 = 0.0385 | 0.005 ± 0.000454 | –
[1], x2 = 0.0839 | 0.00753 ± 0.000478 | –
[1], x2 = 0.1324 | 0.00841 ± 0.000502 | –
[1], x2 = 0.1841 | 0.00779 ± 0.000502 | –
[1], x2 = 0.2355 | 0.00421 ± 0.00043 | –
[1], x2 = 0.2844 | -0.0011 ± 0.000382 | –
[1], x2 = 0.3336 | -0.00743 ± 0.000478 | –
[1], x2 = 0.3803 | -0.0131 ± 0.000598 | –
[1], x2 = 0.4245 | -0.0174 ± 0.000693 | –
[1], x2 = 0.4313 | -0.0181 ± 0.000693 | –
[1], x2 = 0.458 | -0.0205 ± 0.000741 | –
[1], x2 = 0.5024 | -0.0217 ± 0.000789 | –
[1], x2 = 0.5565 | -0.023 ± 0.000813 | –
[1], x2 = 0.6234 | -0.0229 ± 0.000813 | –
[1], x2 = 0.6941 | -0.0215 ± 0.000789 | –
[1], x2 = 0.7723 | -0.0185 ± 0.000717 | –
[1], x2 = 0.851 | -0.0141 ± 0.000621 | –
[1], x2 = 0.9264 | -0.00803 ± 0.000502 | –
[2], x2 = 0.08 | – | 2015.53 ± 1.4
[2], x2 = 0.1235 | – | 1937.68 ± 1.5
[2], x2 = 0.1689 | – | 1859.7 ± 1.6
[2], x2 = 0.2131 | – | 1787.18 ± 1.7
[2], x2 = 0.311 | – | 1637.22 ± 1.9
[2], x2 = 0.3652 | – | 1559.91 ± 2
[2], x2 = 0.424 | – | 1480.28 ± 2.1
[2], x2 = 0.4807 | – | 1407.25 ± 2.1
[2], x2 = 0.5444 | – | 1329.31 ± 2.2
[2], x2 = 0.6754 | – | 1181.51 ± 2.3
[2], x2 = 0.7549 | – | 1098.99 ± 2.3
[2], x2 = 0.8227 | – | 1032.55 ± 2.3
[2], x2 = 0.9026 | – | 958.45 ± 2.3

BrCCBr [1,2-dibromoethane] + CCOC(=O)CC
Conditions | excess molar enthalpy [kcal/mol] | mass density [kg/m3]
[1], x2 = 0.0408 | 0.00294 ± 0.000406 | –
[1], x2 = 0.0876 | 0.00552 ± 0.000454 | –
[1], x2 = 0.1399 | 0.00636 ± 0.000478 | –
[1], x2 = 0.1925 | 0.00495 ± 0.000454 | –
[1], x2 = 0.2463 | 0.00124 ± 0.000382 | –
[1], x2 = 0.3001 | -0.00495 ± 0.000454 | –
[1], x2 = 0.3515 | -0.0114 ± 0.00055 | –
[1], x2 = 0.3996 | -0.0181 ± 0.000693 | –
[1], x2 = 0.4154 | -0.0205 ± 0.000765 | –
[1], x2 = 0.4446 | -0.0241 ± 0.000837 | –
[1], x2 = 0.4644 | -0.0276 ± 0.000908 | –
[1], x2 = 0.486 | -0.0301 ± 0.00098 | –
[1], x2 = 0.522 | -0.0345 ± 0.00108 | –
[1], x2 = 0.5865 | -0.0383 ± 0.00117 | –
[1], x2 = 0.6595 | -0.0372 ± 0.00115 | –
[1], x2 = 0.7397 | -0.0331 ± 0.00105 | –
[1], x2 = 0.827 | -0.0259 ± 0.000884 | –
[1], x2 = 0.9159 | -0.0163 ± 0.000669 | –
[2], x2 = 0.0479 | – | 2086.59 ± 1.4
[2], x2 = 0.0959 | – | 2007.68 ± 1.5
[2], x2 = 0.1904 | – | 1859.96 ± 1.8
[2], x2 = 0.2852 | – | 1720.53 ± 2
[2], x2 = 0.3448 | – | 1636.9 ± 2.1
[2], x2 = 0.4532 | – | 1492.57 ± 2.3
[2], x2 = 0.5156 | – | 1413.6 ± 2.3
[2], x2 = 0.5836 | – | 1330.59 ± 2.4
[2], x2 = 0.6423 | – | 1261.58 ± 2.4
[2], x2 = 0.7044 | – | 1190.86 ± 2.4
[2], x2 = 0.7717 | – | 1116.79 ± 2.4
[2], x2 = 0.8366 | – | 1047.86 ± 2.4
[2], x2 = 0.9155 | – | 967.12 ± 2.4

BrCCBr [1,2-dibromoethane] + CCOC(C)=O
Conditions | excess molar enthalpy [kcal/mol] | mass density [kg/m3]
[1], x2 = 0.0529 | 0.00619 ± 0.000478 | –
[1], x2 = 0.1142 | 0.00951 ± 0.000526 | –
[1], x2 = 0.1754 | 0.0111 ± 0.00055 | –
[1], x2 = 0.2376 | 0.0103 ± 0.000526 | –
[1], x2 = 0.2976 | 0.00906 ± 0.000502 | –
[1], x2 = 0.3548 | 0.00643 ± 0.000478 | –
[1], x2 = 0.4086 | 0.0028 ± 0.00043 | –
[1], x2 = 0.4579 | -0.00112 ± 0.000382 | –
[1], x2 = 0.5045 | -0.00509 ± 0.000454 | –
[1], x2 = 0.536 | -0.00822 ± 0.000502 | –
[1], x2 = 0.5453 | -0.00877 ± 0.000502 | –
[1], x2 = 0.5935 | -0.0133 ± 0.000598 | –
[1], x2 = 0.6556 | -0.0167 ± 0.000669 | –
[1], x2 = 0.7113 | -0.0176 ± 0.000693 | –
[1], x2 = 0.7914 | -0.0161 ± 0.000669 | –
[1], x2 = 0.8635 | -0.0119 ± 0.000574 | –
[1], x2 = 0.9367 | -0.00602 ± 0.000478 | –
[2], x2 = 0.0526 | – | 2091.79 ± 1.4
[2], x2 = 0.1032 | – | 2019.48 ± 1.6
[2], x2 = 0.1562 | – | 1945.11 ± 1.7
[2], x2 = 0.2107 | – | 1869.55 ± 1.8
[2], x2 = 0.2686 | – | 1790.65 ± 2
[2], x2 = 0.4371 | – | 1568.65 ± 2.3
[2], x2 = 0.4987 | – | 1490.07 ± 2.4
[2], x2 = 0.6182 | – | 1341.18 ± 2.5
[2], x2 = 0.6799 | – | 1266.02 ± 2.5
[2], x2 = 0.7399 | – | 1194.16 ± 2.5
[2], x2 = 0.8065 | – | 1115.57 ± 2.5
[2], x2 = 0.8705 | – | 1041.22 ± 2.5
[2], x2 = 0.9341 | – | 968.46 ± 2.4

BrCCBr [1,2-dibromoethane] + CCOC=O
Conditions | excess molar enthalpy [kcal/mol] | mass density [kg/m3]
[1], x2 = 0.0568 | 0.0286 ± 0.000932 | –
[1], x2 = 0.1289 | 0.0522 ± 0.00151 | –
[1], x2 = 0.1965 | 0.0704 ± 0.00194 | –
[1], x2 = 0.2654 | 0.0861 ± 0.00232 | –
[1], x2 = 0.3304 | 0.0957 ± 0.00263 | –
[1], x2 = 0.3922 | 0.0993 ± 0.00263 | –
[1], x2 = 0.4464 | 0.0988 ± 0.00263 | –
[1], x2 = 0.497 | 0.0966 ± 0.00263 | –
[1], x2 = 0.5357 | 0.0939 ± 0.00263 | –
[1], x2 = 0.5433 | 0.0896 ± 0.00239 | –
[1], x2 = 0.5813 | 0.0887 ± 0.00239 | –
[1], x2 = 0.5831 | 0.0816 ± 0.00222 | –
[1], x2 = 0.6341 | 0.0816 ± 0.00222 | –
[1], x2 = 0.6895 | 0.0722 ± 0.00198 | –
[1], x2 = 0.7525 | 0.0596 ± 0.00167 | –
[1], x2 = 0.8186 | 0.0457 ± 0.00134 | –
[1], x2 = 0.8841 | 0.0318 ± 0.00103 | –
[1], x2 = 0.9442 | 0.016 ± 0.000669 | –
[2], x2 = 0.062 | – | 2094.82 ± 1.5
[2], x2 = 0.1228 | – | 2022.36 ± 1.6
[2], x2 = 0.1867 | – | 1945.54 ± 1.8
[2], x2 = 0.2494 | – | 1869.83 ± 2
[2], x2 = 0.3088 | – | 1797.46 ± 2.1
[2], x2 = 0.366 | – | 1727.27 ± 2.3
[2], x2 = 0.4251 | – | 1654.13 ± 2.4
[2], x2 = 0.4893 | – | 1574.29 ± 2.5
[2], x2 = 0.5444 | – | 1505.3 ± 2.5
[2], x2 = 0.6044 | – | 1429.44 ± 2.6
[2], x2 = 0.6588 | – | 1360.3 ± 2.6
[2], x2 = 0.7175 | – | 1285.15 ± 2.6
[2], x2 = 0.8304 | – | 1138.86 ± 2.6
[2], x2 = 0.8871 | – | 1064.61 ± 2.5
[2], x2 = 0.9405 | – | 994.23 ± 2.5
